Data reported in ChEMBL document CHEMBL5244247, “Natural and synthetic coumarins as antileishmanial agents: A review” (Eur J Med Chem, 2020).
In brackets after ≈: the same amount, converted by molar mass.

Legend:
[1] = system: Peritoneal macrophage; assay: Cytotoxicity against mouse peritoneal macrophage; assay type: functional, cell-based
[2] = system: Leishmania infantum; assay: Antileishmanial activity against amastigote form of Leishmania infantum; assay type: functional, organism-based
[3] = system: Leishmania amazonensis; assay: Antileishmanial activity against promastigote form of Leishmania amazonensis assessed as parasite growth inhibition incubated for 72 hrs by neubauer counting chamber analysis; assay type: functional, organism-based
[4] = system: Leishmania major; assay: Antileishmanial activity against promastigote form of Leishmania major assessed as inhibition of parasite growth by MTT colorimetric cell viability assay; assay type: functional, organism-based
[5] = system: Leishmania donovani; assay: Antileishmanial activity against promastigote form of Leishmania donovani; assay type: functional, organism-based
[6] = system: Leishmania donovani; assay: Antileishmanial activity against amastigote form of Leishmania donovani; assay type: functional, organism-based
[7] = system: Leishmania major; assay: Antileishmanial activity against promastigote form of Leishmania major assessed as inhibition incubated for 72 hrs by MTT assay; assay type: functional, organism-based
[8] = system: Leishmania major; assay: Antileishmanial activity against promastigote form of Leishmania major; assay type: functional, organism-based
[9] = system: Leishmania amazonensis; assay: Antileishmanial activity against promastigote form of Leishmania amazonensis assessed as inhibition of parasite growth at 200 uM incubated for 72 hrs by neubauer counting chamber analysis relative to control; assay type: functional
[10] = system: Leishmania panamensis; assay: Antileishmanial activity against intracellular Leishmania panamensis amastigotes infected in human U-937 cells assessed as inhibition at 20 ug/mL incubated for 72 hrs by flow cytometry relative to control; assay type: functional
[11] = system: Leishmania amazonensis; assay: Antileishmanial activity against promastigote form of Leishmania amazonensis assessed as parasite growth inhibition incubated for 72 hrs by regression analysis; assay type: functional, organism-based
[12] = system: Leishmania amazonensis; assay: Antileishmanial activity against intracellular Leishmania amazonensis MHOM/BR/75/Josefa amastigotes infected in BALB/c mouse peritoneal macrophages assessed as parasite growth inhibition incubated for 24 hrs by regression analysis; assay type: functional, organism-based; conditions: Peritoneal macrophage
[13] = system: Leishmania major; assay: Antiproliferative activity against promastigote form of Leishmania major assessed as lethal dose; assay type: functional; conditions: read-out: LD50 (the source's name)
[14] = system: Leishmania major; assay: Antileishmanial activity against promastigote form of Leishmania major assessed as inhibition of parasite growth by Litchfield-Wilcoxon method; assay type: functional, organism-based
[15] = system: Leishmania donovani; assay: Antileishmanial activity against amastigote form of Leishmania donovani at 50 uM assessed as inhibition of parasite growth relative to control; assay type: functional
[16] = system: Leishmania amazonensis; assay: Antileishmanial activity against amastigote form of Leishmania amazonensis assessed as parasite growth inhibition; assay type: functional, organism-based
[17] = system: Leishmania amazonensis; assay: Antileishmanial activity against Leishmania amazonensis infected in BALB/c mouse assessed as reduction in parasite load at 10 mg/kg, sc administered for 14 days relative to control; assay type: functional; design: scale not given: the % may be the effect or the level left; conditions: time 14.0 day
[18] = system: Leishmania major; assay: Antileishmanial activity against amastigote form of Leishmania major; assay type: functional, organism-based

Question: With `CC1=CC[C@@H]2C(C)(C)[C@H](O)CC[C@@]2(C)[C@@H]1COc1ccc2ccc(=O)oc2c1` [FESELOL] as the compound, how does the IC50 [1] read?
Answer: Its IC50 is 8 µM.

Question: And the IC50 [2]?
Answer: Its IC50 is 6.8 µM.

Question: With `O=c1cc(-c2ccccc2)c2ccc(O[C@@H]3O[C@H](CO)[C@@H](O)[C@H](O)[C@H]3O)cc2o1` as the compound, how does the IC50 [3] read?
Answer: The IC50 was 91.8 µM.

Question: How did the IC50 [4] turn out when `CC1CC(CC(C)(O)C(O)COc2ccc3ccc(=O)oc3c2O)OC1=O` (stereo not given) was run?
Answer: The IC50 was greater than 100 µM.

Question: How did the IC50 [5] turn out when `COc1cc(O[C@@H]2O[C@H](CO)[C@@H](O)[C@H](O)[C@H]2O)c2c(-c3ccc(O)c(O)c3)cc(=O)oc2c1` was run?
Answer: The IC50 was 28.9 µM.

Question: And the IC50 [6]?
Answer: The IC50 was greater than 90 µM.

Question: `C=C1CC(C/C(C)=C/COc2ccc3ccc(=O)oc3c2O)OC1=O` (stereo not given) [CLAUSLACTONE E] was tested. Which IC50 [4] did it give?
Answer: The IC50 was 9.8 µM.

Question: With `O=c1oc2ccccc2cc1-c1nnc2n1N=C(c1ccc(Cl)c(Cl)c1)CS2` as the compound, how does the IC50 [7] read?
Answer: Its IC50 is 0.89 µM.

Question: Which IC50 [5] does the source give for `Cc1cccc2cc(C(c3c(O)c4ccccc4oc3=O)N3CCCCC3)c(Cl)nc12` (stereo not given) here?
Answer: The IC50 was 9.9 µM.

Question: For `CC1=CC[C@H]2[C@@H](CC[C@@H](O)C2(C)C)[C@]1(C)COc1ccc2ccc(=O)oc2c1`, which IC50 [8] is on record?
Answer: The IC50 was 46.8 µg/mL (≈ 122 µM).

Question: `CN(C)c1ccc(C(c2c(O)c3ccccc3oc2=O)c2c(O)c3ccccc3oc2=O)cc1` was tested. Which IC50 [5] did it give?
Answer: Its IC50 is 150 µg/mL.

Question: `COc1cc2ccc(=O)oc2c2c1OC(C)(C)C=C2` was tested. Which IC50 [3] did it give?
Answer: The IC50 was 70 µM.

Question: And the inhibition at 200 µM [9]?
Answer: Its inhibition at 200 µM is 100%.

Question: For `C=C(C)C(CC/C(C)=C/COc1cc(O)cc2oc(=O)ccc12)OO` (stereo not given), which IC50 [4] is on record?
Answer: The IC50 was 20.2 µM.

Question: For `Cc1cc(=O)oc2cc(OCCCCCOc3cc(Cl)ccc3Oc3ccc(Cl)cc3Cl)ccc12`, which inhibition at 20 µg/mL [10] is on record?
Answer: Its inhibition at 20 µg/mL is 50%.

Question: For `O=c1cc(-c2ccccc2)c2c(O)cc(O)cc2o1`, which IC50 [11] is on record?
Answer: The IC50 was 60.2 µM.

Question: What does the source list for `CCC(C)C(OC)c1c(OC)c(CC=C(C)C)c(OC)c2c(-c3ccccc3)cc(=O)oc12` (stereo not given)?
Answer: IC50 [12]: 22.2 µM; IC50 [11]: 1.9 µM

Question: How did the IC50 [5] turn out when `COc1cc(O[C@@H]2O[C@H](COC(C)=O)[C@@H](OC(C)=O)[C@H](OC(C)=O)[C@H]2OC(C)=O)c2c(-c3ccc(OC(C)=O)c(OC(C)=O)c3)cc(=O)oc2c1` was run?
Answer: The IC50 was 12.4 µM.

Question: What about the IC50 [6] of the same compound?
Answer: Its IC50 is greater than 90 µM.

Question: For `CC(C)=CCC/C(C)=C/COc1ccc2ccc(=O)oc2c1`, which LC50 [13] is on record?
Answer: The LC50 was 30 µM.

Question: And the IC50 [14]?
Answer: The IC50 was 17.1 µM.

Question: With `N#CCC1=NN=C(c2cc3ccccc3oc2=O)C(CC(=O)c2ccc(Cl)cc2)O1` (stereo not given) as the compound, how does the IC50 [6] read?
Answer: The IC50 was 14.2 µM.

Question: What about the inhibition at 50 µM [15] of the same compound?
Answer: Its inhibition at 50 µM is 95%.

Question: For `CC(C)=C1CC[C@H](C)[C@](C)(COc2ccc3ccc(=O)oc3c2)[C@H]1CCC(=O)O` [GALBANIC ACID], which IC50 [14] is on record?
Answer: Its IC50 is 165 µM.

Question: `CCC(C)C(=O)c1c(O)c(CC=C(C)C)c(OC)c2c(-c3ccccc3)cc(=O)oc12` (stereo not given) was tested. Which IC50 [12] did it give?
Answer: Its IC50 is 34 µM.

Question: What about the IC50 [11] of the same compound?
Answer: Its IC50 is 2.4 µM.

Question: Which IC50 [16] does the source give for `COC(=O)C1=C(N)Oc2cc(O)c3c(C)cc(=O)oc3c2C1c1ccc(Br)cc1` (stereo not given) here?
Answer: Its IC50 is 33.2 µM.

Question: `COC(=O)C1=C(N)Oc2cc(O)c3c(C)cc(=O)oc3c2C1c1ccc(Cl)cc1` (stereo not given) was tested. Which IC50 [16] did it give?
Answer: Its IC50 is 38.4 µM.

Question: For `C=C1C=C[C@H]2C(C)(C)C(=O)CC[C@]2(C)[C@@H]1COc1ccc2ccc(=O)oc2c1`, which IC50 [8] is on record?
Answer: The IC50 was 43.8 µg/mL (≈ 116 µM).

Question: For MEGLUMINE ANTIMONATE, which Activity [17] is on record?
Answer: The Activity was 95.2%.

Question: With `Cc1cc(=O)oc2cc(OCCCOc3cc(Cl)ccc3Oc3ccc(Cl)cc3Cl)ccc12` as the compound, how does the inhibition at 20 µg/mL [10] read?
Answer: The inhibition at 20 µg/mL was 34%.

Question: Which results are given for `COc1cc(O[C@@H]2O[C@H](CO)[C@@H](O)[C@H](O)[C@H]2O)c2c(-c3ccc(OC)c(OC)c3)cc(=O)oc2c1`?
Answer: IC50 [5]: 10.2 µM; IC50 [6]: > 90 µM

Question: For `COc1ccc2ccc(=O)oc2c1CC=C(C)C` [OSTHOLE], which IC50 [18] is on record?
Answer: Its IC50 is 14.9 µg/mL (≈ 61.2 µM).
